Columns and labels:
[1] = molecular target: Alkaline phosphatase, tissue-nonspecific isozyme (Homo sapiens) (UniProt P05186); test: Concentration required for 50% inhibition of human leukocyte alkaline phosphatase in the presence of 10 mM p-nitrophenyl phosphate as substrate
[2] = molecular target: Alkaline phosphatase, tissue-nonspecific isozyme (Homo sapiens) (UniProt P05186); test: as above; remark: listed apart in the source

Alkaline phosphatase, tissue-nonspecific isozyme (Homo sapiens), sequence (P05186 whole entry, looked up): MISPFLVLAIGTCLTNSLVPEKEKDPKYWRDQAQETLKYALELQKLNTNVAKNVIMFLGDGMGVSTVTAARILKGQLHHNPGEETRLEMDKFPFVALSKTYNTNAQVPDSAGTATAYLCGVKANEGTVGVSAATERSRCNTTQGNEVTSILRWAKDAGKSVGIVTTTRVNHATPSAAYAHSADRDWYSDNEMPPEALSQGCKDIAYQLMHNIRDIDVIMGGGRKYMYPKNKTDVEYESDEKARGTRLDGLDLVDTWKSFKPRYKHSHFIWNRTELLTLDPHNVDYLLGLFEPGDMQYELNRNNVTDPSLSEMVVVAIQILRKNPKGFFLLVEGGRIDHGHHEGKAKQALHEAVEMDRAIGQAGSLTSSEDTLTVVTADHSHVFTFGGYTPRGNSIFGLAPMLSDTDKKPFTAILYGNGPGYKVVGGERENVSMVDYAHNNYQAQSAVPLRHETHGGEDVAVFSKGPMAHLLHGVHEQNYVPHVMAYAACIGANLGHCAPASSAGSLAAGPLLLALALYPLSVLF

Molecule CCCCc1cc2c(O)cc(C(=O)O)nc2c2c(O)cc(C(=O)O)nc12 has an IC50 [1] of 0.97 mM.

O=C(O)c1cc(=O)c2c(OCC(O)COc3cccc4oc(C(=O)O)cc(=O)c34)cccc2o1 [Crolom] gave an IC50 [1] of 9.68 mM.

For O=C(O)c1ccc2nc3ccc(O)cc3c(=O)n2c1, the IC50 [2] was 0.34 mM.

In the case of CCCOc1ccccc1-c1nc2nn[nH]c2c(=O)[nH]1 [5-(2-propoxyphenyl)-2H,3H,7H-[1,2,3]triazolo[4,5-d]pyrimidin-7-one], the IC50 [2] is reported as 1.75 mM.
